Type in all cases: physicochemical
Series [1] in a line: Hygroscopicity and humidity stability by DVS. Here is the method:
DVS data in the present disclosure were measured via an SMS (Surface Measurement Systems Ltd.) intrinsic DVS instrument. The instrument control software is DVS-Intrinsic control software. Typical Parameters for DVS test are as follows: • Temperature: 25° C. • Gas and flow rate: N2, 200 mL/min • RH range: 0% RH to 95% RH
DVS analyzer was applied to evaluate the hygroscopicity of Form CSI with an appropriate amount. The mass changes at each relative humidity were recorded in a cycle of 0% RH-95%RH-0%RH. The crystalline form of the sample before and after DVS were tested by XRPD.

Series [2] in a line: Stability under mechanical force (ball milling). To be noted: milled 5 minutes at 500 rpm, XRPD. On the procedure: The crystalline form of the sample before and after ball milling were tested by XRPD, and the XRPD overlay is depicted in FIG. 6.
The nature of series [3]: Physical and chemical stability on storage (XRPD, HPLC). On the procedure:
Chemical purity and crystalline form were tested by HPLC and XRPD.

Where [4] appears, read: 25° C./60% RH, 9 months, sealed container.
Where [5] appears, read: 40° C./75% RH, 9 months, sealed container.
The mark [6] stands for this setting: 60° C./75% RH, 3 months, sealed container.

Entries after “also recorded” stand apart in the source; their conditions may differ.

With `CCc1nc(-c2ccc3c(c2)CC[C@H]3NC(=O)c2cnn(C)c2)no1.CCc1nc(-c2ccc3c(c2)CC[C@H]3NC(=O)c2cnn(C)c2)no1.O=C(O)C(O)C(O)C(=O)O` [Form CSI], the “Mass increase (weight gain) at 80% RH” value in series [1] (DVS, 25° C., equilibrium at 80% RH) is on record as 0.18%. In addition, the “Crystalline form after humidity cycle” value in series [1] (cycle of 0% RH-95%RH-0%RH, XRPD) is recorded as “remains unchanged”. For the same compound, in series [2], the “Crystalline form after ball milling” value is recorded as “doesn't change; also recorded: no form change”. The “Time stable on storage (no change of crystalline form)” value is listed as “at least 9 months” in series [3] (25° C./60% RH), “at least 9 months” in series [3] (40° C./75% RH) and “at least 3 months” in series [3] (60° C./75% RH). In addition, the Purity in series [3] (setting [4]) is 99.98%; in series [3] (setting [5]), 99.99%; in series [3] (setting [6]), 99.98%; in series [3] (Initial), 99.98%. In addition, the Solid form entry in series [3] (setting [4]), in series [3] (setting [5]), in series [3] (setting [6]) and in series [3] (Initial) was “Form CSI” throughout.
